Values quoted from earlier work in publication PMC9737391, “Trifluoromethylcinnamanilide Michael Acceptors for Treatment of Resistant Bacterial Infections” (International Journal of Molecular Sciences, 2022).

Tested on: NF-κB
Design: method as in PMID 31835703
Conditions: compared with prednisone; cited from earlier work

SMILES: O=C(/C=C/c1ccccc1)Nc1cc(C(F)(F)F)ccc1Cl [3g]
- anti-inflammatory potential (NF-κB inhibition): comparable to that prednisone
